Like-named read-outs stand apart in the source and are kept apart here.
Key:
[1] = set-up: key: 1-high; 2-medium; 3-low probability; settings: Table 4A; grading of probability from literature reports; cited from earlier work
[2] = Table 4A; grading of probability from literature reports; cited from earlier work
[3] = set-up: key: 1-high; 2-medium; 3-low probability; settings: Table 4A; grading of probability from literature reports; cited from earlier work; remark: listed apart in the source
[4] = set-up: key: 1-high; 2-medium; 3-low probability; settings: Table 4A; grading of probability from literature reports; cited from earlier work; remark: listed apart in the source
[5] = set-up: key to Weight Gain: 1-high; 2-medium; 3-low probability; settings: cited from earlier work; for Weight Gain: Table 4A, grading of probability from literature reports
D4 dopamine receptor [6] = target: T1, D4 dopamine receptor (Rattus norvegicus, UniProt P30729); settings: cited from earlier work
T1 sequence (P30729 1-387): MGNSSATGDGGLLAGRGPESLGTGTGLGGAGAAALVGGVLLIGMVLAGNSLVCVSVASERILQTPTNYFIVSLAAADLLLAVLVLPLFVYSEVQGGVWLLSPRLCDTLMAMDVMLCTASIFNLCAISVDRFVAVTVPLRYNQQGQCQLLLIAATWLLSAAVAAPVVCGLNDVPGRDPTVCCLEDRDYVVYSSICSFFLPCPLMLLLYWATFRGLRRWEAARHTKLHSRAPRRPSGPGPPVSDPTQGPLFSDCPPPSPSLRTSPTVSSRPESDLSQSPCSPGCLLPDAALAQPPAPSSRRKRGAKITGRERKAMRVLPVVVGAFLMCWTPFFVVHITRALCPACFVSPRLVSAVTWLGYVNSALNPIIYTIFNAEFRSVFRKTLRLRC

5-HT2C receptor [7] = target: 5-HT2C receptor (Rattus norvegicus, UniProt P08909); settings: cited from earlier work
Chain of 5-HT2C receptor (Rattus norvegicus, UniProt P08909) (P08909 33-460): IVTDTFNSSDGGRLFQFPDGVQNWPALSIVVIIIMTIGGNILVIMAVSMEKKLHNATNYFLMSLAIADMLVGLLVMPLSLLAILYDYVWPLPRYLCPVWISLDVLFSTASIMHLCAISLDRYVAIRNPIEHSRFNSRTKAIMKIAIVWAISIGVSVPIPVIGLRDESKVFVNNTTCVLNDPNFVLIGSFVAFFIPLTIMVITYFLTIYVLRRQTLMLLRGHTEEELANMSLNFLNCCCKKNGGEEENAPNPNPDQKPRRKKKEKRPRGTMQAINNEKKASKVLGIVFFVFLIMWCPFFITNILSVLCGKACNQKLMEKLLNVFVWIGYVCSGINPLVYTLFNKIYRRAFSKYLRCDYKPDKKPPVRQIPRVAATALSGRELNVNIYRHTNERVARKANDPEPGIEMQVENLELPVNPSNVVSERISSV

5-HT6 receptor [8] = target: 5-HT6 receptor (Rattus norvegicus, UniProt P31388); settings: cited from earlier work
Chain of 5-HT6 receptor (Rattus norvegicus, UniProt P31388) (P31388 whole entry): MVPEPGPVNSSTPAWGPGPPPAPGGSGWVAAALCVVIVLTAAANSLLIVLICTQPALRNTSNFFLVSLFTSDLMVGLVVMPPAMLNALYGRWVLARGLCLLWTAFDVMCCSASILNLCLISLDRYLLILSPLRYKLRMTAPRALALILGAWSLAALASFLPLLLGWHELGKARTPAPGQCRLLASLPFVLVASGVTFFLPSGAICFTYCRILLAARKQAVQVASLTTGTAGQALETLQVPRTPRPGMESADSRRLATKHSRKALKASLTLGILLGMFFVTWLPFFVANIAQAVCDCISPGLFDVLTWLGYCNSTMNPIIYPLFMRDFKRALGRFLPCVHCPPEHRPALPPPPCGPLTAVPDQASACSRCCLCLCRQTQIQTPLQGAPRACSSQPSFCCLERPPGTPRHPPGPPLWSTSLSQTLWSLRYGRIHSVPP

D4 dopamine receptor [9] = target: T2, D4 dopamine receptor (Homo sapiens, UniProt P21917); settings: cited from earlier work
T2 sequence (P21917 1-419): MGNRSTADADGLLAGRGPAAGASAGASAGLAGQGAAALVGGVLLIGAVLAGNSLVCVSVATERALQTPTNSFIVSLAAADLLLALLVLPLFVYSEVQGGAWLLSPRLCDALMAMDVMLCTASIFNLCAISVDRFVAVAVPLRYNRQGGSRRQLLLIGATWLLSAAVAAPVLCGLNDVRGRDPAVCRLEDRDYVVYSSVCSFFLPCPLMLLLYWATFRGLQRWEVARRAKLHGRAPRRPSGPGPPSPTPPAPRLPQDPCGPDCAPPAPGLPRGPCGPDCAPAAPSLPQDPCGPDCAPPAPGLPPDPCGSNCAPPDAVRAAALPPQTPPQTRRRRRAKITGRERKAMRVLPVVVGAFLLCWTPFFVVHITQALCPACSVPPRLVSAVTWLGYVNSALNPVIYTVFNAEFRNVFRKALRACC

D2 receptor = D2 receptor (Homo sapiens, UniProt P14416); settings: Table 3; expressed as pKi or pKd values; known affinities; cited from earlier work
Chain of D2 receptor (P14416 whole entry): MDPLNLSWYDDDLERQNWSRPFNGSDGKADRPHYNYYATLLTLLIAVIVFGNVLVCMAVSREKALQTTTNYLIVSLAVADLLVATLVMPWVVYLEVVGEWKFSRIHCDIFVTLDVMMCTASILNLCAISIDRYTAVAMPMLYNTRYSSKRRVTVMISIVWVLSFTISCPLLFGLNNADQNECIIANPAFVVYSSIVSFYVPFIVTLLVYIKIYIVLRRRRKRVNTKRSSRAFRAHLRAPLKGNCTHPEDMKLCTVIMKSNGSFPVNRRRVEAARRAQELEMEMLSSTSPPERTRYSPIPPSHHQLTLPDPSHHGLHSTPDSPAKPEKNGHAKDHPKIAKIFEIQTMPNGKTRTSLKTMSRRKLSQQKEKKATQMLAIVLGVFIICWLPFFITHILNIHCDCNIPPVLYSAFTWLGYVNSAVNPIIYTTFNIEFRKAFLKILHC

[10] = tested on: 5-HT2C receptor relative to 5-HT2A and D2 receptors; assay: Relative 5-HT2C affinity (formula I, sum of 5-HT2C/5-HT2A and 5-HT2C/D2 affinity ratios)
5-HT2C receptor [11] = target: T3, 5-HT2C receptor (Homo sapiens, UniProt P28335); settings: active metabolite in man; U.S. Pat. No. 6,093,747; cited from earlier work
T3 sequence (P28335 33-458): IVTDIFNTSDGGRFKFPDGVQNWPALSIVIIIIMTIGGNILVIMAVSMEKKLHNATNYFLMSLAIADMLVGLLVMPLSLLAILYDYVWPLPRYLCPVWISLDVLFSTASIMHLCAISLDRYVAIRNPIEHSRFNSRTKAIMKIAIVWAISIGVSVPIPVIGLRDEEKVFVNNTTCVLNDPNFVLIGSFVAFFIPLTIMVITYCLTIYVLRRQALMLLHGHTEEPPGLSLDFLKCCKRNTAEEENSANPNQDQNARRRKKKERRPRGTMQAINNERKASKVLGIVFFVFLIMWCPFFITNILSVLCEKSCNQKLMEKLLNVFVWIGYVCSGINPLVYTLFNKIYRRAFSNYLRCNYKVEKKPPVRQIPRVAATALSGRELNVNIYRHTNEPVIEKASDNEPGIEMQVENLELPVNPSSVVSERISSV

5-HT2A receptor = 5-HT2A receptor (Homo sapiens, UniProt P28223); settings: Table 3; expressed as pKi or pKd values; known affinities; cited from earlier work
Chain of 5-HT2A receptor (P28223 whole entry): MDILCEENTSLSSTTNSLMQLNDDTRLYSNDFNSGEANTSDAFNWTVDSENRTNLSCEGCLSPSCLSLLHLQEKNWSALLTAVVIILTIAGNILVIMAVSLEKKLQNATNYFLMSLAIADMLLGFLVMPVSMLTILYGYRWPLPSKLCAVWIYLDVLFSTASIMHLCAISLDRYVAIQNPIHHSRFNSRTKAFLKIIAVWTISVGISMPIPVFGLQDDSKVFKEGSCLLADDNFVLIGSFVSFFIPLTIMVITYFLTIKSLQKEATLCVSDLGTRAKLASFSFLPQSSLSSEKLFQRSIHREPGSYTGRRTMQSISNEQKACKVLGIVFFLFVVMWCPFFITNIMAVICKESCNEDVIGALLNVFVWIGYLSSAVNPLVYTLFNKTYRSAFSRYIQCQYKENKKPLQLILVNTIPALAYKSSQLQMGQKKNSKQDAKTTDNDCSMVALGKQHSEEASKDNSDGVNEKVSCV

5-HT1A receptor [12] = target: T4, 5-HT1A receptor (Rattus norvegicus, UniProt P19327); settings: cited from earlier work
T4 sequence (P19327 1-422): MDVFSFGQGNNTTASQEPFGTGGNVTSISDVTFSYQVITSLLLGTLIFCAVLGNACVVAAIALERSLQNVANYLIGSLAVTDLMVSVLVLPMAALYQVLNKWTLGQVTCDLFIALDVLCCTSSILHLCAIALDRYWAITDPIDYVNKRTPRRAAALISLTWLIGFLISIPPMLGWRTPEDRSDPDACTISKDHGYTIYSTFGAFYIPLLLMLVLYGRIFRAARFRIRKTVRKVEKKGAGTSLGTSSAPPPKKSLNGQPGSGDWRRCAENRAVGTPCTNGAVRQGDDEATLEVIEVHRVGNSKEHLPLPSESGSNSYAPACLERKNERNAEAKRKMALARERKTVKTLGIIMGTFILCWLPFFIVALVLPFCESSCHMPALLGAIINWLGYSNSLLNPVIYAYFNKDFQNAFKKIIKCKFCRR

sigma, σ receptor [13] = settings: guinea-pig; cited from earlier work
D1 dopamine receptor = D1 dopamine receptor (Homo sapiens, UniProt P21728); settings: cited from earlier work
Chain of D1 dopamine receptor (P21728 whole entry): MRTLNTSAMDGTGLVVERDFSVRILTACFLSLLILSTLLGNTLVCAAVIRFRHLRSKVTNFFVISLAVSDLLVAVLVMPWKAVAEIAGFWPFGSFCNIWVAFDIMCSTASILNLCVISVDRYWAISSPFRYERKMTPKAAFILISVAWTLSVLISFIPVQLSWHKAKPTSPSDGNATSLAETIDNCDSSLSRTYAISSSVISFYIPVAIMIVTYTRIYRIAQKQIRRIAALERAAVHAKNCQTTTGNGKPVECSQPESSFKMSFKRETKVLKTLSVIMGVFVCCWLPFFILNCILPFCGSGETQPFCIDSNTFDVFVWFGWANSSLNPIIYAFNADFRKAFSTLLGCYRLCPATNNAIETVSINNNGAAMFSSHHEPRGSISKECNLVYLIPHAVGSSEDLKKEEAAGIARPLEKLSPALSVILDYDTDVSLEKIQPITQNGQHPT

[14] = target: mACh, muscarinic acetylcholine receptor; settings: human; cited from earlier work
5-HT6 receptor [15] = target: 5-HT6 receptor (Homo sapiens, UniProt P50406); settings: cited from earlier work
α2-adrenoceptor [16] = settings: human; cited from earlier work
α1-adrenoceptor [17] = settings: human; cited from earlier work
H1/D2 = H1/D2 receptor affinity ratio; type: binding, human; settings: Table 2; affinity ratio from data of Table 1
5-HT2C/D2 = 5-HT2C/D2 receptor affinity ratio; type: binding, human; settings: Table 2; affinity ratio from data of Table 1
5-HT2A/D2 = 5-HT2A/D2 receptor affinity ratio; type: binding, human; settings: Table 2; affinity ratio from data of Table 1
5-HT2C/5-HT2A = 5-HT2C/5-HT2A receptor affinity ratio; type: binding, human; settings: Table 2; affinity ratio from data of Table 1
[18] = tested on: 5HT2A/2C mediated elevations of prolactin levels; settings: known from literature; cited from earlier work
[19] = rhesus monkeys; cited from earlier work
α1-adrenoceptor [20] = settings: rat; cited from earlier work
5-HT2C receptor [21] = target: T3, 5-HT2C receptor; settings: cited from earlier work
5-HT7 receptor = 5-HT7 receptor (Rattus norvegicus, UniProt P32305); settings: cited from earlier work
Chain of 5-HT7 receptor (P32305 whole entry): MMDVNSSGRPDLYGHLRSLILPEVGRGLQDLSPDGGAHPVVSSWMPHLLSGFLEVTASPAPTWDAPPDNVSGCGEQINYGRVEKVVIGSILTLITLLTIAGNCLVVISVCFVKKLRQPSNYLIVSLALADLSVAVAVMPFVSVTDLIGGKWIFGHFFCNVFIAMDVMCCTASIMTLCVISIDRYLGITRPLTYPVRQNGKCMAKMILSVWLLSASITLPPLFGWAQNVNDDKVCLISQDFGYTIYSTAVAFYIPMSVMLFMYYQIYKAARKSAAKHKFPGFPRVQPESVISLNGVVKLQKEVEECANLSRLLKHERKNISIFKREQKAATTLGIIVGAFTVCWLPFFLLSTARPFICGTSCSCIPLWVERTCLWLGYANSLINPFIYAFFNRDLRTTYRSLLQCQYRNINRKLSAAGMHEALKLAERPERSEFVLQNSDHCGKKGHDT

α2-adrenoceptor [22] = settings: rat; cited from earlier work
[23] = target: mACh, muscarinic acetylcholine receptor; settings: rat; cited from earlier work
sigma, σ receptor [24] = settings: rat; cited from earlier work
D3 dopamine receptor = D3 dopamine receptor (Homo sapiens, UniProt P35462); settings: cited from earlier work
Chain of D3 dopamine receptor (P35462 whole entry): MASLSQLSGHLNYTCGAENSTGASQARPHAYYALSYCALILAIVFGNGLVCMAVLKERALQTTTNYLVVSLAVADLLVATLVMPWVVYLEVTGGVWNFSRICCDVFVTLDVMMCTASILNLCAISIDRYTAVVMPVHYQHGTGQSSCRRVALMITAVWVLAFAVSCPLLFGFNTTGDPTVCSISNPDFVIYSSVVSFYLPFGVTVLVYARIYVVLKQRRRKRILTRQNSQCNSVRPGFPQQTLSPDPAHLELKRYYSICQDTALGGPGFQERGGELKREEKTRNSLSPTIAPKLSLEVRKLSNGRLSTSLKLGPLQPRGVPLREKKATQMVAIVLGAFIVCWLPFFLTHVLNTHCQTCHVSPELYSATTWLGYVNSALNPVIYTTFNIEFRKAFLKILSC

5-HT1A receptor [25] = target: 5-HT1A receptor (Homo sapiens, UniProt P08908); settings: cited from earlier work
Chain of 5-HT1A receptor (Homo sapiens, UniProt P08908) (P08908 whole entry): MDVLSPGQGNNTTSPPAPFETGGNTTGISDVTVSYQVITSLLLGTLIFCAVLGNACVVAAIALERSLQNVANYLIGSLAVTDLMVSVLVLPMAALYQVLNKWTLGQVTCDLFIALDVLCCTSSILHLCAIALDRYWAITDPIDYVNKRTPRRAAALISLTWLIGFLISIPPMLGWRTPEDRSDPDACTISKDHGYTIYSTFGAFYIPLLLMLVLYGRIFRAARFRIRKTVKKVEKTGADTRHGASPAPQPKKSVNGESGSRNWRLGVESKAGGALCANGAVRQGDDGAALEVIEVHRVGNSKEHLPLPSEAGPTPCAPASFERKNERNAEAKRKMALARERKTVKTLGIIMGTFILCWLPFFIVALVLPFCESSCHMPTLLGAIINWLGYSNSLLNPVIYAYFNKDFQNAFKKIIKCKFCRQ

sigma, σ receptor [26] = settings: human; cited from earlier work
[27] = target: D2-S (short form of D2 receptor) (Homo sapiens, UniProt P14416); settings: cited from earlier work
Chain of D2-S (short form of D2 receptor) (P14416 1-414 isoform P14416-2): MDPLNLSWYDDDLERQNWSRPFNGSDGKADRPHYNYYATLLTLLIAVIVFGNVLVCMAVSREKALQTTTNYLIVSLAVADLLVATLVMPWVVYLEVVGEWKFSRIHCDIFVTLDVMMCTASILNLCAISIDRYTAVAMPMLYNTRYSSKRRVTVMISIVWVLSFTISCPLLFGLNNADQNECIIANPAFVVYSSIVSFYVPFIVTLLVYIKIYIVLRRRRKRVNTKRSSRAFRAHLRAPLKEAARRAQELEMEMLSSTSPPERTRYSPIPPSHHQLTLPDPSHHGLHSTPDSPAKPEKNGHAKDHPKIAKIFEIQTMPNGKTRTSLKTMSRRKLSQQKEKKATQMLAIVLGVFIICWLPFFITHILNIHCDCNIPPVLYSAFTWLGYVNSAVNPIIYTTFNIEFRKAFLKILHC

5-HT3 receptor = 5-HT3 receptor (Homo sapiens, UniProt P46098); settings: cited from earlier work
Chain of 5-HT3 receptor (P46098 24-478): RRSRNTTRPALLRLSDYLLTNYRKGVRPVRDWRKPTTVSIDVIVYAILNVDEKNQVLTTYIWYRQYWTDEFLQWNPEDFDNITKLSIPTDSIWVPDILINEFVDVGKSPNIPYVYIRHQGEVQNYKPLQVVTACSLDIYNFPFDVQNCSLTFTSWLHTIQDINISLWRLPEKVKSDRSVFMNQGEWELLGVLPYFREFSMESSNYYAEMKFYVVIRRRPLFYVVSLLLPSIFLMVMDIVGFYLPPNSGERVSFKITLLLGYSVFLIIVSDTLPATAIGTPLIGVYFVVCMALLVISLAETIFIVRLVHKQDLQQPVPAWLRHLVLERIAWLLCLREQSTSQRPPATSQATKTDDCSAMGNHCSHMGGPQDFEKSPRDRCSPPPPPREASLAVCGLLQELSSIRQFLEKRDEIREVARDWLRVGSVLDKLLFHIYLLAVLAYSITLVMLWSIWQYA

H1 histamine receptor = H1 histamine receptor (Homo sapiens, UniProt P35367); settings: cited from earlier work
Chain of H1 histamine receptor (P35367 whole entry): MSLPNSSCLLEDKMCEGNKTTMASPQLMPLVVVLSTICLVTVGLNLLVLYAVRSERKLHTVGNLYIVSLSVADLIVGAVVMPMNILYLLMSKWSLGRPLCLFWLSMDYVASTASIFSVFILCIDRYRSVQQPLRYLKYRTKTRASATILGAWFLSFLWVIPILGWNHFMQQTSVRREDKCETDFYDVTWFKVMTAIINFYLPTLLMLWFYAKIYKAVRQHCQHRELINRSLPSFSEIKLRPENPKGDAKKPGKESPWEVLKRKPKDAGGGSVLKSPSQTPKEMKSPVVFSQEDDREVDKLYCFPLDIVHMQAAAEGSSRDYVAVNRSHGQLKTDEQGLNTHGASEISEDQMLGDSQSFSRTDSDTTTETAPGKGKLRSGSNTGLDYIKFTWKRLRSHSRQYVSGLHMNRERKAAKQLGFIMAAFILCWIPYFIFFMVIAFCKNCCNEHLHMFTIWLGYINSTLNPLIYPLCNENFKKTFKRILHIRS

[28] = target: D2-L (long form of D2 receptor) (Homo sapiens, UniProt P14416); settings: cited from earlier work
Chain of D2-L (long form of D2 receptor) (P14416 whole entry): as the sequence (P14416 whole entry) above

[29] = Table 2, sum of affinity ratios from data of Table 1

## OCCOCCN1CCN(C2=Nc3ccccc3Sc3ccccc32)CC1 [Seroquel]
[1]
  Improvement negative symptoms: 3
[2]
  Improvement cognitive deficits: 2-3
[3]
  Increases prolactin levels: 3
[4]
  Extra-pyramidal side effects: 2
[5]
  Weight Gain: 2
[5]; text b109, literature reports
  weight gain (in words): do cause weight gain

## O=c1[nH]c2ccccc2n1C1CCN(CCCC(c2ccc(F)cc2)c2ccc(F)cc2)CC1 [Pimozide]
D4 dopamine receptor [6]
  D4 affinity value (−logKi): 7.5^4
5-HT2C receptor [7]
  5-HT2C affinity value (−logKi): <5^1
5-HT6 receptor [8]
  5-HT6 affinity value (−logKi): 7.2^2
D4 dopamine receptor [9]
  D4 affinity value (−logKi): 7.4^12

## CNCCO[C@]1(c2ccccc2)C[C@H]2CC[C@]1(C)C2(C)C [N-Desmethyl-deramciclane, (1R,2S,4R)-(−)-2-phenyl-2-(methylaminoethoxy)-1,7,7-trimethyl-bicyclo[2.2.1]heptane]
D2 receptor
  D2 Affinity: 7
[10]; Table 3, calculated from known 5-HT2C/5-HT2A/D2 affinities
  Formula I Affinity Ratio: 2.20
5-HT2C receptor [11]
  5-HT2C receptor antagonism compared with deramciclane: even more pronounced 5-HT2C receptor antagonism
5-HT2A receptor
  5-HT2A Affinity: 7

## O=C1NCCN1CCN1CCC(c2cn(-c3ccc(F)cc3)c3ccc(Cl)cc23)CC1 [Sertindole]
[1]
  Improvement negative symptoms: 2
[10]; Table 4B
  (2C/2A) + (2C/D2): 1.91
5-HT1A receptor [12]
  5-HT1A affinity value (−logKi): 6.6^6
sigma, σ receptor [13]
  sigma affinity value (−logKi): 6.9^6
D1 dopamine receptor
  D1 affinity value (−logKi): 6.89^19
[14]
  mACh affinity value (−logKi): <5.6^19
5-HT6 receptor [15]
  5-HT6 affinity value (−logKi): 9.13^19
[3]
  Increases prolactin levels: 3
[4]
  Extra-pyramidal side effects: 3
α2-adrenoceptor [16]
  α2 affinity value (−logKi): 6.5^19
α1-adrenoceptor [17]
  α1 affinity value (−logKi): 8.7^19
[5]
  Weight Gain: 2-3

## CN1CC2c3ccccc3Oc3ccc(Cl)cc3C2C1 (centres unmarked) [ORG-5222]
[10]; [29]
  (2C/2A) + (2C/D2): 2.15
H1/D2
  H1/D2: 1.02
5-HT2C/D2
  5-HT2C/D2 (2C/D2): 1.13
5-HT2A/D2
  5-HT2A/D2: 1.10
5-HT2C/5-HT2A
  5-HT2C/5-HT2A (2C/2A): 1.02

## CC(C)n1cc2c3c(cccc31)[C@H]1C[C@@H](C(=O)NC3CCCCC3)CN(C)[C@@H]1C2 [Amesergide, N-cyclohexyl-1-isopropyl-6-methyl-ergoline-8-carboxamide]
[18]
  effect on 5HT2A/2C mediated elevations of prolactin levels induced by D-fenfluramine: block 5HT2A/2C mediated elevations of prolactin levels
[19]
  day of maximum values of parent compounds or metabolites (4-hydroxy and desisopropyl species): 35 days
  day of minimum values of parent compounds or metabolites: 365 days

## Cc1nc2n(c(=O)c1CCN1CCC(c3noc4cc(F)ccc34)CC1)CCCC2 [Risperidone]
[1]
  Improvement negative symptoms: 3
[2]
  Improvement cognitive deficits: 2-3
[3]
  Increases prolactin levels: 1
[4]
  Extra-pyramidal side effects: 1
[5]
  Weight Gain: 2-3

## COc1cc(C(C)=O)ccc1OCCCN1CCC(c2noc3cc(F)ccc23)CC1 [Iloperidone]
α1-adrenoceptor [20]
  α1 affinity value (−logKi): 9.6^17
5-HT2C receptor [21]
  5-HT2C affinity value (−logKi): 7.4^10
[10]; [29]
  (2C/2A) + (2C/D2): 1.79
5-HT1A receptor [12]
  5-HT1A affinity value (−logKi): 6.8^18
5-HT7 receptor
  5-HT7 affinity value (−logKi): 7.7^10
α2-adrenoceptor [22]
  α2 affinity value (−logKi): 7.5^17
[23]
  mACh affinity value (−logKi): <5^17
D1 dopamine receptor
  D1 affinity value (−logKi): 6.7^10
5-HT6 receptor [8]
  5-HT6 affinity value (−logKi): 7.4^10
sigma, σ receptor [24]
  sigma affinity value (−logKi): 7.5^17
D3 dopamine receptor
  D3 affinity value (−logKi): 8.1^10

## CCNC(=O)N1CCN(CCCC(c2ccc(F)cc2)c2ccc(F)cc2)CC1 [Amperozide]
[10]; [29]
  (2C/2A) + (2C/D2): 1.67
5-HT7 receptor
  5-HT7 affinity value (−logKi): 6.3^2
5-HT1A receptor [25]
  5-HT1A affinity value (−logKi): 5.9^19
D1 dopamine receptor
  D1 affinity value (−logKi): 5.1^19
[14]
  mACh affinity value (−logKi): 6.3^19
sigma, σ receptor [26]
  sigma affinity value (−logKi): 6.3^19
5-HT6 receptor [8]
  5-HT6 affinity value (−logKi): 7.2^2
H1/D2
  H1/D2: 1.08
[27]
  D2-S affinity value (−logKi): 6.5^3
5-HT3 receptor
  5-HT3 affinity value (−logKi): <5^19
5-HT2C/D2
  5-HT2C/D2 (2C/D2): 0.92
5-HT2A/D2
  5-HT2A/D2: 1.23
H1 histamine receptor
  H1 affinity value (−logKi): 6.9^19
[28]
  D2-L affinity value (−logKi): 6.4^3
α2-adrenoceptor [16]
  α2 affinity value (−logKi): 5.5^19
α1-adrenoceptor [17]
  α1 affinity value (−logKi): 6.2^19
D3 dopamine receptor
  D3 affinity value (−logKi): 6.6^3
5-HT2C/5-HT2A
  5-HT2C/5-HT2A (2C/2A): 0.76

From US20060229299A1, “5ht2c Receptor antagonists in the treatment of schizophrenia” (priority 2003, published 2006)
